This passage reports IC50 results from paper PMC9178793, “A Direct Assay for Measuring the Activity and Inhibition of Coactivator-Associated Arginine Methyltransferase 1” (Biochemistry, 2022).

Read-outs that look alike come from different tables or passages of the source. *1 amine or outer side, *2 acyl side, *3 side chain or, on linkers, in order; H or OH if unused. Where a SMILES comes first, the peptide text is derived from it. [ ]: non-standard residue; d: D form. X1 = N=C(NCCC[C@H](N[*:1])C(=O)[*:2])NCCC[C@H]1O[C@@H](n2cnc3c(N)ncnc32)[C@H](O)[C@@H]1O

Experiment [1] deals with T1, CARM1 (Mus musculus, UniProt Q9WVG6).
T1 construct: corresponding to the PRMT core (residues 130–497, mmCARM1_130–497) were amplified by PCR; GST (followed by TEV protease cleavage site) (N, cleaved yes); made in house; host or cells: Sf9 insect cells (baculovirus)
T1 sequence (Q9WVG6 130-497): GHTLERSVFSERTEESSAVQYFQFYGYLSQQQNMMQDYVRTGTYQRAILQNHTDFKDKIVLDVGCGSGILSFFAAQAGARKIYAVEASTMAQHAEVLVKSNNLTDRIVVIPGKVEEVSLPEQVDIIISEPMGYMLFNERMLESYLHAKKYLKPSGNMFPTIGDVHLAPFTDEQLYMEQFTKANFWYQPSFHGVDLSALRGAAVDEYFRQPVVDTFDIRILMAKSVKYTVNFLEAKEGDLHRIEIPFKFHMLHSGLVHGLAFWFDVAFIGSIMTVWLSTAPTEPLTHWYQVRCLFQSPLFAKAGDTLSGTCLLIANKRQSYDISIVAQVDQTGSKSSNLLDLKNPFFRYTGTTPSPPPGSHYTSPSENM
Put plainly: MRM LC-MS CARM1 enzyme inhibition assay (PABP1 456–466 peptide substrate, direct detection of aDMA product). The class given is biochemical. To be noted: 286 nM CARM1, 12 μM PABP1 456–466, 10 μM AdoMet, 15 min preincubation, 2 h room temperature; duplicate data, ± SD. An excerpt: The positive clones were confirmed by sequencing (GATC). The sequences were subcloned in a pDEST20 vector using an LR reaction. The resulting recombinant protein is harboring an amino-terminal glutathione S-transferase (GST) tag followed by a Tobacco etch virus (TEV) protease cleavage site. […] Bacmid DNA purified from recombination-positive white colonies was transfected into Sf9 cells using the Lipofectin reagent (Invitrogen). Viruses were harvested 10 days after transfection. Sf9 cells were grown at 300 K in suspension culture in Grace medium (Gibco) using Bellco spinner flasks. sf9 cell culture (1 L, 0.8 × 10^6 cells·mL^-1) was infected with recombinant […]1 virus with an infection multiplicity of 1. The cells were harvested 48 h post-infection. Cell lysis was performed by sonication in 50 mL of buffer A [50 mM Tris-HCl pH 8.0, 250 mM NaCl, 5% glycerol, 5 mM TCEP, 0.01% NP40 and anti-proteases (Roche, Complete, EDTA-free)], and cellular debris was sedimented by centrifugation of the lysate at 40 000g for 30 min. The supernatant was incubated overnight at 277 K with 2 mL of glutathione Sepharose resin (GE Healthcare). After a short centrifugation, the supernatants were discarded, and the beads were poured in an Econo-column (Bio-Rad). After two washing steps with 10 mL of buffer A, 2 mL of buffer A supplemented with in-house produced TEV protease was applied to the columns and digestion was performed for 4 h at 303 K with gentle mixing. The digest was concentrated with an Amicon Ultra 10K (Milipore), loaded on a gel-filtration column (HiLoad 16/60 Superdex S200, GE Healthcare), and eluted at 1 mL·min^-1 with buffer B [20 mM Tris-HCl pH 8.0, 100 mM NaCl, 1 mM TCEP] using an ÄKTA Purifier device (GE Healthcare). Fractions containing […]1_130-497 were pooled and concentrated to 7.75 mg·mL^-1. […] The reaction was subsequently quenched by the addition of 30 μL of the reaction mixture to 10 μL of a 0.1% formic acid solution (pH 2). […] The supernatant (60 μL) was transferred to a new 96-well plate and analyzed. […] The products were eluted with a water-acetonitrile gradient moving from 20 to 92% acetonitrile (0.1% FA) over 6 min at a flow rate of 0.5 mL·min^-1. The injection volume was 10 μL. The ionization source was operated in positive mode using an interface voltage of 4.5 kV, nebulizing gas at 1.5 L/min, drying gas at 15 L/min, and a desolvation line (DL) temperature of 250 °C. The MRM parameter optimization was performed using both the analyte (PABP1^456-466-R^460-aDMA) and hexadeuterated internal standard (PABP1^456-466-R^460-d6-aDMA). The results of this optimization, which include precursor ion scanning, collision energy, and Q1 and Q3 scanning, are summarized in Table 1. […] For commercially available inhibitors that were not soluble in water, stock solutions were prepared in DMSO and diluted to a final DMSO concentration of <1% in the assay mixture. […] The mixture was incubated for 2 h at room temperature, and the reaction was subsequently quenched by the addition of 30 μL of the reaction mixture to 10 μL of a 0.1% formic acid solution (pH 2). […] The supernatant (60 μL) was transferred to a new 96-well plate and analyzed by LC-MS as described above. Negative controls (no enzyme) and positive controls (no inhibitor) were included in each plate. For quantification of the methylated product, the area ratio of analyte to internal standard was calculated and quantified using the linearity line obtained with the reference standards. […] To obtain kcat with units of s^-1, the maximal velocity (Vmax) is divided by 3600. [drawing 3] 3 The percentage inhibition was plotted as a function of inhibitor concentration and fit using a nonlinear regression analysis of the sigmoidal dose-response curve generated using the normalized data and a variable slope following eq 4. [drawing 4] 4 where Y is the percent inhibition, X is the logarithmic concentration of the inhibitors, and Hill Slope is the slope factor or Hill coefficient. […]

Experiment [2] has as its target T2, CARM1 (Homo sapiens, UniProt Q86X55).
T2 sequence (Q86X55 1-608): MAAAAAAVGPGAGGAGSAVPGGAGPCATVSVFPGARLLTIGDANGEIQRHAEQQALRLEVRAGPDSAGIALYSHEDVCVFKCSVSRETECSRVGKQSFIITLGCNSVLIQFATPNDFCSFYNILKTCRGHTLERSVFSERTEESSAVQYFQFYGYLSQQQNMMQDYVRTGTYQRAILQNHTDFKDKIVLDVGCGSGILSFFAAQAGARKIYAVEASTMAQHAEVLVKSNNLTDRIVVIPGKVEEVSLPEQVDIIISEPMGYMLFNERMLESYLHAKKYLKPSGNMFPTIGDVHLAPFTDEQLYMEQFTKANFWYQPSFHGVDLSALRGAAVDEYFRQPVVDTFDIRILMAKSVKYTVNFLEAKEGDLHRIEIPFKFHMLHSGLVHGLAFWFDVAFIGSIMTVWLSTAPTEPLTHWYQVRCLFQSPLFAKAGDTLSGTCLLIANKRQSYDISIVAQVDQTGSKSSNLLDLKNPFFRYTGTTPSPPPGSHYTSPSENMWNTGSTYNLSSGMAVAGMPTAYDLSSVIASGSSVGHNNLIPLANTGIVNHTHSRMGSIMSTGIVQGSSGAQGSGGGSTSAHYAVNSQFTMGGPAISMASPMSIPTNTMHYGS
Description: commercially available chemiluminescent antibody-based ELISA kit (histone H3-derived peptide, aDMA at H3-R17). In kind it is biochemical. (In general: ELISA stands for enzyme-linked immunosorbent assay.)
Description: We next applied the assay in assessing the inhibition of CARM1 by a number of known inhibitors of varying potencies including AdoHcy (1), MS023 (2), MS049 (3), TP064 (4), and a series of recently reported peptidomimetic CARM1 inhibitors (5–9) (Figure 3).[20],[32]−[35] For the purpose of generating IC50 curves for these inhibitors, concentration ranges were set according to previously reported IC50 values. The inhibitors were first incubated with CARM1 for 15 min at room temperature before the enzyme reaction was initiated by the addition of the AdoMet/PABP1^456–466 substrate mixture. On the basis of the residual CARM1 activity measured, inhibition curves were generated and the IC50 values were determined (Table 3). To evaluate the suitability of the method for the determination of CARM1 inhibition, the IC50 values were compared with those obtained using a commercially available chemiluminescent ELISA kit. […] In addition, the peptide substrate and detection method employed in the ELISA kit are inherently different. The kit employs a histone H3-derived peptide that is covalently linked to the bottom of the well plate, and as such, no substrate concentration is given. Product formation in turn is detected using specific antibodies that recognize aDMA formation at arginine residue H3-R^17.

Experiment [3] concerns the target T2, CARM1. Particulars: chemiluminescent ELISA kit, H3-derived peptide, 1 μM AdoMet; cited from earlier work.

Usually IC50 stands for the concentration at which inhibition is half-maximal. With `CC(C)Oc1ccc(-c2c[nH]cc2CN(C)CCN)cc1` [Compound 2, reference compound], the half-inhibitory concentration (IC50) came to 0.327 ± 0.034 µM at CARM1 [1] and 0.101 ± 0.011 µM against CARM1 [2].
On to `CSCC[C@H](NC(=O)[C@@H](NC(=O)[C@H](CO)NC(=O)[C@H](Cc1ccccc1)NC(=O)[C@@H]1CCCN1C(=O)[C@@H]1CCCN1C(=O)[C@H](CCCNC(=N)NCCC[C@H]1O[C@@H](n2cnc3c(N)ncnc32)[C@H](O)[C@@H]1O)NC(=O)[C@@H]1CCCN1C(=O)[C@H](C)NC(=O)[C@H](C)NC(=O)[C@@H]1CCCN1C(C)=O)[C@@H](C)O)C(N)=O` [Compound 9] (Ac-PAAP[X1]PPFSTM-NH2), for which the figures for the IC50 at CARM1 [1] and on CARM1 [3] were 0.212 ± 0.025 µM and 0.09 ± 0.016 µM, respectively.
As for `Nc1ncnc2c1ncn2[C@@H]1O[C@H](CSCC[C@H](N)C(=O)O)[C@@H](O)[C@H]1O` [Compound 1, S-adenosyl-L-homocysteine, reference compound], the IC50 on CARM1 [1] was 0.873 ± 0.339 µM.
For the compound `CC(=O)N[C@@H](C)C(=O)N1CCC[C@H]1C(=O)N[C@@H](CCCNC(=N)NCCC[C@H]1O[C@@H](n2cnc3c(N)ncnc32)[C@H](O)[C@@H]1O)C(=O)N[C@@H](CCCCN)C(=O)N[C@@H](CCC(N)=O)C(=O)N[C@@H](CC(C)C)C(N)=O` [Compound 7] (Ac-AP[X1]KQL-NH2), on CARM1 [1], the IC50 stood at 0.617 ± 0.057 µM.
For the compound `CNCCN1CCC(c2cc(CN(C)C(=O)c3cccc(Oc4ccccc4)c3)ccn2)CC1` [Compound 4, reference compound], the IC50 on CARM1 [1] amounted to 0.162 ± 0.01 µM.
As for `CC(=O)N[C@@H](CO)C(=O)N[C@H](C(=O)NCC(=O)NCC(=O)N[C@@H](CCCCN)C(=O)N[C@@H](C)C(=O)N1CCC[C@H]1C(=O)N[C@@H](CCCNC(=N)NCCC[C@H]1O[C@@H](n2cnc3c(N)ncnc32)[C@H](O)[C@@H]1O)C(=O)N[C@@H](CCCCN)C(=O)N[C@@H](CCC(N)=O)C(=O)N[C@@H](CC(C)C)C(=O)N[C@@H](C)C(=O)N[C@H](C(=O)N[C@@H](CCCCN)C(=O)N[C@@H](C)C(=O)N[C@@H](C)C(N)=O)[C@@H](C)O)[C@@H](C)O` [Compound 5] (Ac-STGGKAP[X1]KQLATKAA-NH2), on CARM1 [1], the IC50 came out at 0.77 ± 0.098 µM.
Still for that read-out and setting: next, `CC(=O)N1CCC[C@H]1C(=O)N[C@@H](CCCNC(=N)NCCC[C@H]1O[C@@H](n2cnc3c(N)ncnc32)[C@H](O)[C@@H]1O)C(=O)N[C@@H](CCCCN)C(=O)N[C@@H](CCC(N)=O)C(N)=O` [Compound 8]: 1.46 ± 0.021 µM; `CC(=O)N[C@@H](CCCCN)C(=O)N[C@@H](C)C(=O)N1CCC[C@H]1C(=O)N[C@@H](CCCNC(=N)NCCC[C@H]1O[C@@H](n2cnc3c(N)ncnc32)[C@H](O)[C@@H]1O)C(=O)N[C@@H](CCCCN)C(=O)N[C@@H](CCC(N)=O)C(=O)N[C@@H](CC(C)C)C(=O)N[C@@H](C)C(N)=O` [Compound 6] (Ac-KAP[X1]KQLA-NH2): 0.403 ± 0.028 µM.
